Assay results reported in patent US8765779B2, “Tricyclic derivatives and their pharmaceutical use and compositions” (Cephalon, Inc., priority 2009, dated 2014).
pKi: −log10 of the molar value. Structures can show the parent of a compound that is named as a salt.

What follows are compounds tested against T1, human 5-HT6 receptor (Homo sapiens, UniProt P50406) (assay: Human 5-HT6 Receptor Binding Assay ([3H]LSD displacement, scintillation beads)). Settings: membranes of CHO-K1 cells with recombinant human 5-HT6, 4 nM [3H]LSD; Table 1, class symbols; read-out: h5-HT6 (Ki).
T1 construct: host or cells: CHO-K1 cells, stably transfected; membranes prepared in house
T1 sequence (P50406 whole entry): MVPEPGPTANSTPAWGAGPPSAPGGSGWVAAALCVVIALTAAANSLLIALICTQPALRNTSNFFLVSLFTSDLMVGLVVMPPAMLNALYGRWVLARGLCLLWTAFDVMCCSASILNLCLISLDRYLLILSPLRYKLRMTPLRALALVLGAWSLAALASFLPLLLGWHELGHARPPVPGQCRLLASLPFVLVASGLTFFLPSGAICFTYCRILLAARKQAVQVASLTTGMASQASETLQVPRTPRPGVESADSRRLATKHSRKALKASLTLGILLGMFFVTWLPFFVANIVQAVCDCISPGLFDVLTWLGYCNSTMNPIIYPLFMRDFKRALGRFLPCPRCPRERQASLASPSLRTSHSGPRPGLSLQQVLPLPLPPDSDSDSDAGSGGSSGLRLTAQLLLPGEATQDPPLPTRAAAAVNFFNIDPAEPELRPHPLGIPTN

| SMILES | pKi |
| --- | --- |
| CC12CCNCC1Oc1ccc(OS(=O)(=O)c3cccc(C(F)(F)F)c3)cc12 (stereo not drawn) [Example 780] | < 6.00 |
| CC12CCNCC1Oc1cc(S(=O)(=O)c3cncc(Cl)c3)ccc12 (stereo not drawn) [Example 430] | > 6.30 |
| O=S(=O)(c1ccncc1)c1ccc2c3c(oc2c1)CNCC3 [Example 344] | 6.00 to 6.30 |
| O=S(=O)(c1cncc(C(F)(F)F)c1)c1ccc2c(c1)OC1CNCCC21 (stereo not drawn) [Example 459] | < 6.00 |
| O=S(=O)(c1ccc(Cl)c(C(F)(F)F)c1)c1ccc2c3c(oc2c1)CNCC3 [Example 210] | > 6.30 |
| CC(C)Oc1cccc(S(=O)(=O)c2ccc3c(c2)OC2CNCCC32)c1F (stereo not drawn) [Example 481] | > 6.30 |
| CCOc1cc(F)cc(S(=O)(=O)c2ccc3c(c2)OC2CNCCC32C)c1 (stereo not drawn) [Example 426] | > 6.30 |
| COc1ccc(S(=O)(=O)c2ccc3c4c(oc3c2)C(C)(C)NCC4)cc1F [Example 288] | > 6.30 |
| COc1ccc(S(=O)(=O)c2ccc3c(c2)OC2CNCCC32)cc1OC (stereo not drawn) [Example 115] | < 6.00 |
| [O-][S+](c1ccc2c3c(oc2c1)CNCC3)c1cccnc1Cl (stereo not drawn) [Example 435] | < 6.00 |
| O=S(=O)(c1cccc(F)c1)c1ccc2c3c(oc2c1)C(C(F)(F)F)NCC3 (stereo not drawn) [Example 510] | > 6.30 |
| COc1cc(S(=O)(=O)c2ccc3c4c(oc3c2)C(C)(C)NCC4)c[n+]([O-])c1 [Example 369] | < 6.00 |
| CC1(C)NCCc2c1oc1cc(S(=O)(=O)c3ccc(N4CCCC4)nc3)ccc21 [Example 380] | < 6.00 |
| CC12CCNCC1Oc1ccc(OS(=O)(=O)c3cccc4ccccc34)cc12 (stereo not drawn) [Example 768] | 6.00 to 6.30 |
| N#Cc1ccccc1COc1cccc(S(=O)(=O)c2ccc3c(c2)OC2CNCCC32)c1 (stereo not drawn) [Example 550] | 6.00 to 6.30 |
| CC1NCCc2c1oc1cc(S(=O)(=O)c3cccc(C(F)(F)F)c3)ccc21 (stereo not drawn) [Example 237] | > 6.30 |

| SMILES | pKi |
| --- | --- |
| O=S(=O)(c1cccc(F)c1)c1ccc2oc3c(c2c1)CCNC3C(F)(F)F (stereo not drawn) [Example 511] | < 6.00 |
| O=S(=O)(Oc1ccc2c(c1)C1CCNCC1O2)c1cccc2cccnc12 (stereo not drawn) [Example 722] | 6.00 to 6.30 |
| O=S(=O)(c1cccc(F)c1)c1ccc2c3c(oc2c1)C(C1CCOCC1)NCC3 (stereo not drawn) [Example 496] | > 6.30 |
| CC12CCNCC1Oc1ccc(OS(=O)(=O)c3ccc4c(c3)OCCO4)cc12 (stereo not drawn) [Example 775] | > 6.30 |
| CC12CCNCC1Oc1cc(S(=O)(=O)c3cccc(OC(F)(F)F)c3)ccc12 (stereo not drawn) [Example 358, 4a-methyl-7-{[3-(trifluoromethoxy)phenyl]sulfo-nyl}-1,2,3,4,4a,9a-hexahydro[1]benzofuro[2,3-c]pyridine] | > 6.30 |
| CC12CCNCC1Oc1ccc(OS(=O)(=O)c3csc4ccccc34)cc12 (stereo not drawn) [Example 771] | > 6.30 |
| CC(=O)N(C)CC1NCCc2c1oc1cc(S(=O)(=O)c3cccc(Cl)c3)ccc21 (racemic) [Example 541, N-({7-[(3-chlorophenyl)sulfonyl]-1,2,3,4-tetrahydro[1]benzofuro[2,3-c]pyridin-1-yl}methyl)-N-methylacetamide] | > 6.30 |
| Cc1noc(C)c1S(=O)(=O)Oc1ccc2c(c1)OC1CNCCC21 (stereo not drawn) [Example 646] | 6.00 to 6.30 |
| COc1c(F)cc(F)cc1S(=O)(=O)c1ccc2c(c1)OC1CNCCC21C (stereo not drawn) [Example 486] | > 6.30 |
| CC(C)c1ccc(S(=O)(=O)c2ccc3c(c2)OC2CNCCC32)cc1 (stereo not drawn) [Example 125] | > 6.30 |
| COc1cc(OC(C)C)cc(S(=O)(=O)c2ccc3c(c2)OC2CNCCC32)c1 (stereo not drawn) [Example 77] | > 6.30 |
| O=S(=O)(c1cccc(F)c1)c1ccc2c(c1)OC1CNCCC21 (stereo not drawn) [Example 117] | > 6.30 |
| O=S(=O)(c1cc(F)cc(F)c1)c1ccc2c3c(oc2c1)C1(CCOCC1)NCC3 [Example 301, 7-[(3,5-difluorophenyl)sulfonyl]-2′,3,3′,4,5′,6′-hexahydro-2H-spiro[1-benzofuro[2,3-c]pyridine-1,4′-pyran]] | > 6.30 |
| COc1c(F)cc(F)cc1S(=O)(=O)c1ccc2c3c(oc2c1)C(C)(C)NCC3 [Example 470] | > 6.30 |
| COC(=O)c1cccc(S(=O)(=O)c2ccc3oc4c(c3c2)CCNC4)c1 [Example 269] | 6.00 to 6.30 |
| CC(C)Oc1cc(OCCO)cc(S(=O)(=O)c2ccc3c(c2)OC2CNCCC32)c1 (stereo not drawn) [Example 590] | > 6.30 |

Continued, values first:

| pKi | SMILES |
| --- | --- |
| > 6.30 | O=S(=O)(c1cc(Cl)cc(Cl)c1)c1ccc2oc3c(c2c1)CCNC3 [Example 262, 6-[(3,5-dichlorophenyl)sulfonyl]-1,2,3,4-tetrahydro[1]benzofuro[2,3-c]pyridine] |
| < 6.00 | O=S(=O)(Nc1cccc2ccccc12)c1ccc2c(c1)C1CCNCC1O2 (stereo not drawn) [Example 837] |
| > 6.30 | CC(=O)NCC1(C)NCCc2c1oc1cc(S(=O)(=O)c3cccc(F)c3)ccc21 (stereo not drawn) [Example 632, N-({7-[(3-fluorophenyl)sulfonyl]-1-methyl-1,2,3,4-tetrahydro[1]benzofuro[2,3-c]pyridin-1-yl}methyl)acetamide] |
| > 6.30 | O=S(=O)(c1cccc(Br)c1)c1ccc2c3c(oc2c1)CNCC3 [Example 212, 7-[(3-bromophenyl)sulfonyl]-1,2,3,4-tetrahydro[1]benzofuro[2,3-c]pyridine] |
| > 6.30 | O=S(=O)(c1ccccc1)c1ccc2c3c(oc2c1)C1(CCOCC1)NCC3 [Example 296] |
| > 6.30 | CC(C)Oc1ncccc1S(=O)(=O)c1ccc2oc3c(c2c1)CCNC3 [Example 449] |
| 6.00 to 6.30 | O=S(=O)(c1ccc2c(c1)C1CCNCC1O2)N1CCc2ccccc21 (stereo not drawn) [Example 838] |
| > 6.30 | O=S(=O)(c1ccc2c(c1)C1CCNCC1O2)N1CCc2ccccc2C1 (stereo not drawn) [Example 856] |
| 6.00 to 6.30 | O=S(=O)(Oc1ccc2c(c1)OC1CNCCC21)c1cccc2cnccc12 (stereo not drawn) [Example 684] |
| > 6.30 | CC(C)CN1CCc2c(oc3cc(S(=O)(=O)c4ccccc4)ccc23)C1 [Example 593] |
| > 6.30 | O=S(=O)(c1ccc(Oc2ccccc2)cc1)c1ccc2c(c1)OC1CNCCC21 (stereo not drawn) [Example 116] |
| < 6.00 | N#Cc1ccc(S(=O)(=O)c2ccc3oc4c(c3c2)CCNC4)cc1 [Example 271] |
| > 6.30 | O=S(=O)(c1cc(F)cc(F)c1)c1ccc2c(c1)OC1CNCCC21 (stereo not drawn) [Example 131] |
| > 6.30 | Cc1ccc(S(=O)(=O)c2ccc3oc4c(c3c2)CCNC4)cc1 [Example 252] |
| > 6.30 | O=S(=O)(Oc1ccc2c(c1)OC1CNCCC21)c1ccccc1C(F)(F)F (stereo not drawn) [Example 674] |
| < 6.00 | O=S(=O)(Nc1cccc(F)c1)c1ccc2c(c1)C1CCNCC1O2 (stereo not drawn) [Example 846] |
| > 6.30 | O=S(=O)(c1ccccc1)c1ccc2c(c1)OC1CN(C3CCC3)CCC21 (stereo not drawn) [Example 606, 2-Cyclobutyl-7-(phenylsulfonyl)-1,2,3,4,4a,9a-hexahydro[1]benzofuro[2,3-c]pyridine trifluoroacetic acid salt] |
| > 6.30 | COc1ccc(S(=O)(=O)c2ccc3oc4c(c3c2)CCNC4)cc1F [Example 241] |
| > 6.30 | [O-][S+](c1cccc(OC(F)(F)F)c1)c1ccc2c3c(oc2c1)C1(CCOCC1)NCC3 (stereo not drawn) [Example 299, 7-{[3-(trifluoromethoxy)phenyl]sulfi-nyl}-2′,3,3′,4,5′,6′-hexahydro-2H-spiro[1-benzofuro[2,3-c]pyridine-1,4′-pyran]] |

| pKi | SMILES |
| --- | --- |
| > 6.30 | CC1(C)CNC(C2CCOCC2)c2oc3cc(S(=O)(=O)c4cccc(F)c4)ccc3c21 (racemic) [Example 45, 7-[(3-fluorophenyl)sulfonyl]-4,4-dimethyl-1-(tetrahydro-2H-pyran-4-yl)-1,2,3,4-tetrahydro[1]benzofuro[2,3-c]pyridine] |
| 6.00 to 6.30 | O=S(=O)(Oc1ccc2c(c1)OC1CN(C3CCCCC3)CCC21)c1ccc(Cl)cc1 (stereo not drawn) [Example 802] |
| 6.00 to 6.30 | COCCOc1cccc(S(=O)(=O)c2ccc3c(c2)OC2CNCCC32)c1 (stereo not drawn) [Example 558] |
| > 6.30 | CC1(C)CNC2(CCOC2)c2oc3cc(S(=O)(=O)c4cncc(Cl)c4)ccc3c21 (stereo not drawn) [Example 456] |
| > 6.30 | COc1cccc(COc2cccc(S(=O)(=O)c3ccc4c(c3)OC3CNCCC43)c2)c1 (stereo not drawn) [Example 575] |
| > 6.30 | O=S(=O)(c1cccc(Br)c1)c1ccc2oc3c(c2c1)CCNC3 [Example 263, 6-[(3-bromophenyl)sulfonyl]-1,2,3,4-tetrahydro[1]benzofuro[2,3-c]pyridine] |
| < 6.00 | O=S(=O)(Oc1ccc2c(c1)C1CCNCC1O2)c1ccc(OC(F)(F)F)cc1 (stereo not drawn) [Example 744] |
| 6.00 to 6.30 | O=S(=O)(c1ccc(-c2ccccc2)cc1)c1ccc2c3c(oc2c1)CNCC3 [Example 228] |
| > 6.30 | O=S(=O)(Oc1ccc2c(c1)C1CCNCC1O2)c1cccc(C(F)(F)F)c1 (stereo not drawn) [Example 737] |
| > 6.30 | COc1ccc(S(=O)(=O)c2ccc3c4c(oc3c2)C(C)NCC4)cc1F (stereo not drawn) [Example 236] |
| < 6.00 | COc1ccc(S(=O)(=O)c2ccc3oc4c(c3c2)CCNC4)cc1OC [Example 242] |
| > 6.30 | CN(C)C(=O)CC1(C)NCCc2c1oc1cc(S(=O)(=O)c3cccc(F)c3)ccc21 (racemic) [Example 40, 2-{7-[(3-fluorophenyl)sulfonyl]-1-methyl-1,2,3,4-tetrahydro[1]benzofuro[2,3-c]pyridin-1-yl}-N,N-dimethylacetamide] |
| < 6.00 | O=S(=O)(Oc1ccc2c(c1)OC1CN(Cc3ccccc3)CCC21)c1ccc(Cl)cc1 (stereo not drawn) [Example 803] |
| > 6.30 | CC(C)c1ccc(S(=O)(=O)c2ccc3oc4c(c3c2)CCNC4)cc1 [Example 259] |
| > 6.30 | CC(C)Oc1ccccc1S(=O)(=O)c1ccc2c(c1)OC1CNCCC21 (stereo not drawn) [Example 419] |
| > 6.30 | O=S(=O)(c1ccc(Cl)cc1)c1ccc2c3c(oc2c1)CNCC3 [Example 203] |
| > 6.30 | CC(C)CC1(C)NCCc2c1oc1cc(S(=O)(=O)c3cccc(F)c3)ccc21 (racemic) [Example 36, 7-[(3-fluorophenyl)sulfonyl]-1-methyl-1-(2-methylpropyl)-1,2,3,4-tetrahydro[1]benzofuro[2,3-c]pyridine] |
| > 6.30 | CC(=O)N1CCc2c(oc3cc(S(=O)(=O)c4ccccc4)ccc23)C1 [Example 614, 1-[7-(Phenylsulfonyl)-3,4-dihydro[1]benzofuro[2,3-c]pyridin-2(1H)-yl]ethanone trifluoroacetate] |
